Test results reported in PubChem BioAssay AID1259407 (Chemical Carcinogenesis Research Information System (CCRIS), 2018).
Activity calls are given as the source filed them. No rule for the calls is given here.

System: CCRIS mutagenicity, Ames/micronucleus/aberration tests
Assay: CCRIS mutagenicity studies
[1] = Test System: AMES SALMONELLA TYPHIMURIUM, Strain/Indicator: TA100, Metabolic Activation: NONE, Method: STANDARD PLATE
[2] = Test System: AMES SALMONELLA TYPHIMURIUM, Strain/Indicator: TA98, Metabolic Activation: NONE, Method: PREINCUBATION
[3] = Test System: AMES SALMONELLA TYPHIMURIUM, Strain/Indicator: TA100, Metabolic Activation: NONE, Method: PREINCUBATION
[4] = Test System: AMES SALMONELLA TYPHIMURIUM, Strain/Indicator: TA1535, Metabolic Activation: NONE, Method: PREINCUBATION
[5] = Test System: AMES SALMONELLA TYPHIMURIUM, Strain/Indicator: TA1537, Metabolic Activation: NONE, Method: PREINCUBATION
[6] = Test System: AMES SALMONELLA TYPHIMURIUM, Strain/Indicator: TA1538, Metabolic Activation: NONE, Method: PREINCUBATION
[7] = Test System: AMES SALMONELLA TYPHIMURIUM, Strain/Indicator: TA97, Metabolic Activation: NONE, Method: PREINCUBATION

Brc1ccc(CN2[C@@H]3c4ccccc4-c4ccccc4[C@@H]32)cc1 (stereo partly drawn)
mutagenic call [1]: active; positive

CN(N=O)C(=O)c1c(N(C)N=O)ncn1C
mutagenic call (Test System: AMES SALMONELLA TYPHIMURIUM, Strain/Indicator: TA98, Metabolic Activation: NONE, Method: STANDARD PLATE): inactive; negative
mutagenic call (Test System: AMES SALMONELLA TYPHIMURIUM, Strain/Indicator: TA98, Metabolic Activation: S-9, Method: STANDARD PLATE): inactive; negative
mutagenic call [1]: active; positive
mutagenic call (Test System: AMES SALMONELLA TYPHIMURIUM, Strain/Indicator: TA100, Metabolic Activation: S-9, Method: STANDARD PLATE): active; positive
mutagenic call (Test System: AMES SALMONELLA TYPHIMURIUM, Strain/Indicator: TA102, Metabolic Activation: NONE, Method: STANDARD PLATE): active; positive
mutagenic call (Test System: AMES SALMONELLA TYPHIMURIUM, Strain/Indicator: TA102, Metabolic Activation: S-9, Method: STANDARD PLATE): active; positive
mutagenic call (Test System: AMES SALMONELLA TYPHIMURIUM, Strain/Indicator: TA1535, Metabolic Activation: NONE, Method: STANDARD PLATE): active; positive
mutagenic call (Test System: AMES SALMONELLA TYPHIMURIUM, Strain/Indicator: TA1535, Metabolic Activation: S-9, Method: STANDARD PLATE): active; positive
mutagenic call (Test System: AMES SALMONELLA TYPHIMURIUM, Strain/Indicator: TA1537, Metabolic Activation: NONE, Method: STANDARD PLATE): inactive; negative
mutagenic call (Test System: AMES SALMONELLA TYPHIMURIUM, Strain/Indicator: TA1537, Metabolic Activation: S-9, Method: STANDARD PLATE): inactive; negative

CCCC(=O)Nc1ncnc2c1ncn2[C@@H]1O[C@@H]2COP(=O)(O)O[C@H]2[C@H]1OC(=O)CCC
mutagenic call [2]: inactive; negative
mutagenic call (Test System: AMES SALMONELLA TYPHIMURIUM, Strain/Indicator: TA98, Metabolic Activation: RAT, LIVER, S-9, KC-500, Method: PREINCUBATION): inactive; negative
mutagenic call [3]: inactive; negative
mutagenic call (Test System: AMES SALMONELLA TYPHIMURIUM, Strain/Indicator: TA100, Metabolic Activation: RAT, LIVER, S-9, KC-500, Method: PREINCUBATION): inactive; negative
mutagenic call [4]: inactive; negative
mutagenic call (Test System: AMES SALMONELLA TYPHIMURIUM, Strain/Indicator: TA1535, Metabolic Activation: RAT, LIVER, S-9, KC-500, Method: PREINCUBATION): inactive; negative
mutagenic call [5]: inactive; negative
mutagenic call (Test System: AMES SALMONELLA TYPHIMURIUM, Strain/Indicator: TA1537, Metabolic Activation: RAT, LIVER, S-9, KC-500, Method: PREINCUBATION): inactive; negative
mutagenic call [6]: inactive; negative
mutagenic call (Test System: AMES SALMONELLA TYPHIMURIUM, Strain/Indicator: TA1538, Metabolic Activation: RAT, LIVER, S-9, KC-500, Method: PREINCUBATION): inactive; negative
mutagenic call (Test System: E. COLI, Strain/Indicator: WP2 UVRA, Metabolic Activation: NONE, Method: PREINCUBATION): inactive; negative
mutagenic call (Test System: E. COLI, Strain/Indicator: WP2 UVRA, Metabolic Activation: RAT, LIVER, S-9, KC-500, Method: PREINCUBATION): inactive; negative

O=NN(c1ccc(C(=O)O)cc1)C1OC[C@@H](O)[C@@H](O)[C@@H]1O (stereo partly drawn)
mutagenic call (Test System: AMES SALMONELLA TYPHIMURIUM, Strain/Indicator: TA100, Metabolic Activation: NONE, Method: LIQUID INCUBATION): active; positive

Cc1ccc(S(=O)(=O)NC2CCCCC2)cc1
mutagenic call (Test System: AMES SALMONELLA TYPHIMURIUM, Strain/Indicator: TA97, Metabolic Activation: HAMSTER, LIVER, S-9, AROCLOR 1254 (10 OR 30%), Method: PREINCUBATION): inactive; negative
mutagenic call [7]: inactive; negative
mutagenic call (Test System: AMES SALMONELLA TYPHIMURIUM, Strain/Indicator: TA97, Metabolic Activation: RAT, LIVER, S-9, AROCLOR 1254 (10 OR 30%), Method: PREINCUBATION): inactive; negative
mutagenic call (Test System: AMES SALMONELLA TYPHIMURIUM, Strain/Indicator: TA98, Metabolic Activation: HAMSTER, LIVER, S-9, AROCLOR 1254 (10 OR 30%), Method: PREINCUBATION): inactive; negative
mutagenic call (Test System: AMES SALMONELLA TYPHIMURIUM, Strain/Indicator: TA98, Metabolic Activation: RAT, LIVER, S-9, AROCLOR 1254 (10%), Method: PREINCUBATION): inactive; negative
mutagenic call (Test System: AMES SALMONELLA TYPHIMURIUM, Strain/Indicator: TA98, Metabolic Activation: RAT, LIVER, S-9, AROCLOR 1254 (30%), Method: PREINCUBATION): inactive; negative
mutagenic call (Test System: AMES SALMONELLA TYPHIMURIUM, Strain/Indicator: TA100, Metabolic Activation: HAMSTER, LIVER, S-9, AROCLOR 1254 (10 OR 30%), Method: PREINCUBATION): inactive; negative
mutagenic call [3]: inactive; negative
mutagenic call (Test System: AMES SALMONELLA TYPHIMURIUM, Strain/Indicator: TA100, Metabolic Activation: RAT, LIVER, S-9, AROCLOR 1254 (10%), Method: PREINCUBATION): inactive; negative
mutagenic call (Test System: AMES SALMONELLA TYPHIMURIUM, Strain/Indicator: TA100, Metabolic Activation: RAT, LIVER, S-9, AROCLOR 1254 (30%), Method: PREINCUBATION): inactive; negative
mutagenic call (Test System: AMES SALMONELLA TYPHIMURIUM, Strain/Indicator: TA1535, Metabolic Activation: HAMSTER, LIVER, S-9, AROCLOR 1254 (10 OR 30%), Method: PREINCUBATION): inactive; negative
mutagenic call [4]: inactive; negative
mutagenic call (Test System: AMES SALMONELLA TYPHIMURIUM, Strain/Indicator: TA1535, Metabolic Activation: RAT, LIVER, S-9, AROCLOR 1254 (10 OR 30%), Method: PREINCUBATION): inactive; negative
mutagenic call (Test System: AMES SALMONELLA TYPHIMURIUM, Strain/Indicator: TA1537, Metabolic Activation: HAMSTER, LIVER, S-9, AROCLOR 1254 (30%), Method: PREINCUBATION): inactive; negative
mutagenic call [5]: inactive; negative
mutagenic call (Test System: AMES SALMONELLA TYPHIMURIUM, Strain/Indicator: TA1537, Metabolic Activation: RAT, LIVER, S-9, AROCLOR 1254 (30%), Method: PREINCUBATION): inactive; negative

O=C1C=C(Nc2ccccc2)C(=O)c2ccccc21
mutagenic call [7]: inactive; negative
mutagenic call (Test System: AMES SALMONELLA TYPHIMURIUM, Strain/Indicator: TA97, Metabolic Activation: RAT, LIVER, S-9, PHENOBARBITAL AND 5,6-BENZOFLAVONE, Method: PREINCUBATION): active; positive
mutagenic call [2]: inactive; negative
mutagenic call (Test System: AMES SALMONELLA TYPHIMURIUM, Strain/Indicator: TA98, Metabolic Activation: RAT, LIVER, S-9, PHENOBARBITAL AND 5,6-BENZOFLAVONE, Method: PREINCUBATION): active; positive
mutagenic call [3]: inactive; negative
mutagenic call (Test System: AMES SALMONELLA TYPHIMURIUM, Strain/Indicator: TA100, Metabolic Activation: RAT, LIVER, S-9, PHENOBARBITAL AND 5,6-BENZOFLAVONE, Method: PREINCUBATION): inactive; negative
mutagenic call (Test System: AMES SALMONELLA TYPHIMURIUM, Strain/Indicator: TA102, Metabolic Activation: NONE, Method: PREINCUBATION): inactive; negative
mutagenic call (Test System: AMES SALMONELLA TYPHIMURIUM, Strain/Indicator: TA102, Metabolic Activation: RAT, LIVER, S-9, PHENOBARBITAL AND 5,6-BENZOFLAVONE, Method: PREINCUBATION): inactive; negative
mutagenic call (Test System: AMES SALMONELLA TYPHIMURIUM, Strain/Indicator: TA104, Metabolic Activation: NONE, Method: PREINCUBATION): inactive; negative
mutagenic call (Test System: AMES SALMONELLA TYPHIMURIUM, Strain/Indicator: TA104, Metabolic Activation: RAT, LIVER, S-9, PHENOBARBITAL AND 5,6-BENZOFLAVONE, Method: PREINCUBATION): active; positive
mutagenic call [4]: inactive; negative
mutagenic call (Test System: AMES SALMONELLA TYPHIMURIUM, Strain/Indicator: TA1535, Metabolic Activation: RAT, LIVER, S-9, PHENOBARBITAL AND 5,6-BENZOFLAVONE, Method: PREINCUBATION): inactive; negative
mutagenic call [5]: inactive; negative
mutagenic call (Test System: AMES SALMONELLA TYPHIMURIUM, Strain/Indicator: TA1537, Metabolic Activation: RAT, LIVER, S-9, PHENOBARBITAL AND 5,6-BENZOFLAVONE, Method: PREINCUBATION): active; positive
mutagenic call [6]: inactive; negative
mutagenic call (Test System: AMES SALMONELLA TYPHIMURIUM, Strain/Indicator: TA1538, Metabolic Activation: RAT, LIVER, S-9, PHENOBARBITAL AND 5,6-BENZOFLAVONE, Method: PREINCUBATION): active; positive
mutagenic call (Test System: AMES SALMONELLA TYPHIMURIUM, Strain/Indicator: TA2637, Metabolic Activation: NONE, Method: PREINCUBATION): active; positive
mutagenic call (Test System: AMES SALMONELLA TYPHIMURIUM, Strain/Indicator: TA2637, Metabolic Activation: RAT, LIVER, S-9, PHENOBARBITAL AND 5,6-BENZOFLAVONE, Method: PREINCUBATION): active; positive
